Source: PubChem BioAssay AID732 (Emory University Molecular Libraries Screening Center, 2007)
Active and inactive are the calls of the source. How the calls were made is not given here.

System: in vivo angiogenesis, blood vessel count
Experiment: reduction of blood vessel formation in vivo – HTS, in vivo study (AID 732);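 further: zebrafish embryos dosed at one day post fertilization; 0% = reference inhibitor and 100% = plate mean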
Conditions: active compounds read low;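 tested at 30 µM in the well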

| SMILES | vessel count % control |
| --- | --- |
| COc1ccc(Cl)cc1C(=O)NCCc1ccc(S(=O)(=O)NC(=O)NC2CCCCC2)cc1 | 94.8% (inactive) |
| CCN1CCC[C@H]1CNC(=O)c1cc(S(N)(=O)=O)ccc1OC | 89.7% (inactive) |
| O=C(c1ccccc1)c1ccc2n1CCC2C(=O)O (stereo unspecified) | 79.7% (inactive) |
| C=CCN1CC[C@]23c4c5ccc(O)c4O[C@@H]2/C(=N/N=C2\CC[C@@]4(O)C6Cc7ccc(O)c8c7[C@@]4(CCN6CC=C)[C@@H]2O8)CC[C@@]3(O)C1C5 | 100% (inactive) |
| CC(=O)[C@]1(O)Cc2c(O)c3c(c(O)c2[C@@H](O[C@H]2C[C@H](N)[C@H](O)[C@H](C)O2)C1)C(=O)c1ccccc1C3=O | 0% (inactive) |
| CC1=C(C(=O)O)N2C(=O)[C@@H](NC(=O)C(N)C3=CCC=CC3)[C@H]2SC1 (stereo partly specified) | 98.7% (inactive) |
| CC(=O)OCC1=C(C(=O)[O-])N2C(=O)[C@@H](NC(=O)CCC[C@@H](N)C(=O)[O-])[C@H]2SC1.[Zn+2] | 106% (inactive) |
| CC12NC(Cc3ccccc31)c1ccccc12 (stereo unspecified) | 76.2% (inactive) |
| CCOC(=O)c1cnc2c(cnn2CC)c1NN=C(C)C | 108% (inactive) |
| NC(=O)c1cccc(N)c1 | 117% (inactive) |
| Cc1nc2ccccn2c(=O)c1CCN1CCC(C(=O)c2ccc(F)cc2)CC1 | 94.9% (inactive) |
| CNCCC(Oc1ccccc1C)c1ccccc1 (stereo unspecified) | 122% (inactive) |
| NC(C(=O)N[C@@H]1C(=O)N2C(C(=O)O)=C(Cl)CS[C@H]12)c1ccccc1 (stereo partly specified) | 108% (inactive) |
| CN1CCN(C2=Nc3ccccc3Oc3ccc(Cl)cc32)CC1 | 123% (inactive) |
| COc1ccc(CCN(C)CCCC(C#N)(c2ccc(OC)c(OC)c2)C(C)C)cc1OC (stereo unspecified) | 118% (inactive) |
| CCCn1c(=O)c2[nH]c(-c3ccc(OCC(=O)NCCN)cc3)nc2n(CCC)c1=O | 99.8% (inactive) |
| O=C(OCCN1CCCCC1)c1c[nH]c2ccccc12 | 109% (inactive) |
| OCCN1CCN(CC/C=C2/c3ccccc3Sc3ccc(C(F)(F)F)cc32)CC1 | 110% (inactive) |
| C[C@](N)(Cc1ccc(O)c(O)c1)C(=O)O | 97.4% (inactive) |
| CN1CCc2cc(O)cc3c2[C@H]1Cc1ccc(O)c(O)c1-3 | 96.7% (inactive) |
| CNCC[C@H](Oc1ccc(C(F)(F)F)cc1)c1ccccc1 | 98.4% (inactive) |
| N[C@@H](Cn1cc(I)c(=O)[nH]c1=O)C(=O)O | 107% (inactive) |
| CC(C)Cc1ccc([C@H](C)C(=O)O)cc1 | 66.8% (inactive) |
| CCO/C([O-])=N/c1c[n+](N2CCOCC2)no1 | 100% (inactive) |

| SMILES | vessel count % control |
| --- | --- |
| CSc1nc(N)c2ncn([C@@H]3O[C@H](COP(=O)(O)OP(=O)(O)OP(=O)(O)O)[C@H](O)C3O)c2n1 (stereo partly specified) | 105% (inactive) |
| O=C1C(c2c(O)[nH]c3c(Cl)ccc(Cl)c23)=Nc2ccc(Br)cc21 | 121% (inactive) |
| N#C/C(=C\c1ccc(O)c(O)c1)C(=O)NCCCc1ccccc1 | 137% (inactive) |
| CN(C)C(=O)Oc1ccc[n+](C)c1 | 110% (inactive) |
| CCN(CC)CCNC(=O)c1cc(Cl)c(N)cc1OC | 99.4% (inactive) |
| COc1ccc(-c2ccc(N)[n+](CCCC(=O)O)n2)cc1 | 105% (inactive) |
| CC(C)c1cccc(C(C)C)c1O | 99.6% (inactive) |
| N=c1ccn2c(n1)OC1[C@@H](O)[C@@H](CO)O[C@H]12 (stereo partly specified) | 78.4% (inactive) |
| CN1C2CC(OC(=O)[C@H](CO)c3ccccc3)CC1C1OC12 (stereo partly specified) | 79.7% (inactive) |
| CCN(CC)CCNC(=O)c1cc(S(C)(=O)=O)ccc1OC | 68.7% (inactive) |
| O=C1CCC(c2ccc(-n3ccnc3)cc2)=NN1 | 86% (inactive) |
| CCC1(C2=NCCN2)Cc2ccccc2O1 (stereo unspecified) | 68.5% (inactive) |
| O=C(CCCN1CCC(O)(c2ccc(Cl)cc2)CC1)c1ccc(F)cc1 | 77.9% (inactive) |
| O=Nc1ccc2oc(=O)ccc2c1 | 95% (inactive) |
| NCCCCN | 106% (inactive) |
| C[C@H](Cc1ccccc1)Nc1ncnc2c1ncn2[C@@H]1O[C@H](CO)[C@H](O)C1O (stereo partly specified) | 99.9% (inactive) |
| COc1ccc(-n2nc(C(F)(F)F)cc2-c2ccc(Cl)cc2)cc1 | 126% (inactive) |
| CC(C)NCC(O)c1cc(O)cc(O)c1 (stereo unspecified) | 91.8% (inactive) |
| CCOC(=O)Nc1ccc(NCc2ccc(F)cc2)nc1N | 83.6% (inactive) |
| O=C1NC(=O)C(c2ccccc2)(c2ccccc2)N1 | 92.7% (inactive) |
| Nc1nc(OCc2ccccc2)c2[nH]cnc2n1 | 91% (inactive) |
| COC(=O)C(N)Cc1ccc(Cl)cc1 (stereo unspecified) | 82.4% (inactive) |
| Cc1scc2c1N(C(=O)CN1CCN(C)CC1)c1ccccc1NC2=O | 93.3% (inactive) |
| CCNC(=O)[C@H]1O[C@@H](n2cnc3c(N)ncnc32)C(O)[C@H]1O (stereo partly specified) | 110% (inactive) |

| SMILES | vessel count % control |
| --- | --- |
| NCCCC(N)(C(=O)O)C(F)F (stereo unspecified) | 80.5% (inactive) |
| CCCOC(=O)c1c(-c2ccccc2)nc(CC)c(C(=O)SCC)c1CCC | 98% (inactive) |
| C#CCN[C@H](C)Cc1ccccc1 | 114% (inactive) |
| CN(C)CCCN1c2ccccc2Sc2ccccc21 | 93.7% (inactive) |
| NC(=O)CNCCC(c1ccccc1)c1ccccc1 | 119% (inactive) |
| Cc1cccc(C)c1NC1=NCCCS1 | 114% (inactive) |
| CCCCc1oc2ccccc2c1C(=O)c1cc(I)c(OCCN(CC)CC)c(I)c1 | 120% (inactive) |
| COC(=O)[C@@H]1[C@H]2C[C@H]3c4[nH]c5ccccc5c4CCN3C[C@@H]2CC[C@@H]1O | 95.4% (inactive) |
| CCCN(CC1CC1)c1nc(C)nc(Nc2c(Cl)cc(Cl)cc2Cl)c1Cl | 125% (inactive) |
| NC(=O)COc1c(F)cc(SCCNS(=O)(=O)c2ccccc2)cc1F | 116% (inactive) |
| Cn1cnc(CCN)c1 | 99.8% (inactive) |
| Nc1ncnc2c1ncn2[C@@H]1O[C@H](C(=O)NC2CC2)[C@H](O)C1O (stereo partly specified) | 102% (inactive) |
| O=c1onc2cnc3ccccc3n12 | 95.4% (inactive) |
| CCN(CC)CCOC(=O)c1cc(Cl)c(N)cc1OC | 114% (inactive) |
| NC(N)=NCCCCN=C(N)N | 88% (inactive) |
| O=c1oc(Cl)c(Cl)c2ccccc12 | 104% (inactive) |
| CO[C@@]1(NC(=O)CSCC#N)C(=O)N2C(C(=O)O)=C(CSc3nnnn3C)CS[C@@H]21 | 122% (inactive) |
| C=CCN1CCc2cccc3c2[C@H]1Cc1ccc(O)c(O)c1-3 | 113% (inactive) |
| Cc1ccc(Cl)c(Nc2ccccc2C(=O)O)c1Cl | 90.3% (inactive) |
| NC(=O)c1cc(N2CC2)c([N+](=O)[O-])cc1[N+](=O)[O-] | 107% (inactive) |
| C[C@]12N[C@H](Cc3ccccc31)c1ccccc12 | 85.8% (inactive) |
| OC1CCCCC1N1CCC(c2ccccc2)CC1 (stereo unspecified) | 99% (inactive) |
| NCC(O)c1ccc(O)c(O)c1 (stereo unspecified) | 108% (inactive) |
